Tests used:
[1] = system: subcutaneous GL2612 tumour; parameters: method as in PMID 29993291; conditions: with TMZ; mice; cited from earlier work
C6 orthotopic glioma = system: C6 orthotopic glioma; parameters: method as in PMID 29993291; conditions: with TMZ; C6 orthotopic rat model of glioma; cited from earlier work
[2] = system: tumour-infiltrating lymphocytes in GL261(luc2) glioblastomas; assay: Immune response profiling of tumour-infiltrating lymphocytes by FACS; assay type: in vivo, C57BL/6J mice; conditions: day 16, AT-0174 […] mg/kg PO, TMZ 8 mg/kg IP
Excerpt: On day 16 post-tumour inoculation, satellite animals from each experimental group were euthanized, and tumours were collected. Tumours were processed for organ dissociation using the GentleMACS system (Miltenyi Biotec) and myelin debris removal and homogenate purification through a Percoll gradient. Tumour homogenates were then processed for immunostaining and profiling analysis by flow cytometry for the lymphoid component according to a marker panel including CD45, CD3, CD4, CD8, IFNγ, CD25, and FoxP3. For IFNγ, homogenate samples were first stimulated with a cocktail of Phorbol 12-myristate 13-acetate, Ionomycin and Brefeldin A. Briefly, to assess viability, cells were stained with LIVE/DEAD Zombie NIR (Biolegend). For simultaneous detection of the intracellular molecule, after fixed, cells were permeabilized with Foxp3 transcription factor staining buffer set according to the manufacturer’s protocol (eBioscience). All flow antibodies were obtained from BioLegend.

[3] = Body weight in orthotopic glioblastoma mice; assay type: in vivo, C57BL/6J mice; conditions: repeated treatment; AT-0174 […] mg/kg PO; TMZ 8 mg/kg IP; compared to vehicle
Excerpt: Starting from day 6 after tumour cell inoculation, all mice were monitored in vivo until Day 55 for tumour growth (assessed by bioluminescence and measured on days 6, 14, 21, 28, 35, 42, and 49), body weight (monitored 3 times per week until day 18, and then daily from day 19–55), and survival.

U87 cell xenograft = system: U87 cell xenograft; parameters: method as in PMID 26636389; conditions: U87 cell xenograft model; cited from earlier work
[4] = system: orthotopic intracranial GL261 cell tumours; parameters: method as in PMID 26636389; conditions: cited from earlier work

Cc1ccc(NC(=O)Nc2cc(-c3ccccc3-c3nn[nH]n3)ccc2N(CC(C)C)CC(C)C)cc1 [PCC0208009]
Subcutaneous tumour growth [1]: significantly synergised with TMZ | Survival (C6 orthotopic glioma): improved survival

Cn1nnc2c(C(N)=O)ncn2c1=O [TMZ, Temozolomide]
Cytotoxic CD8+ T cells in tumour ([2]; vs control): non-significant increase | Tregs (CD4+CD25+FoxP3+ cells) in tumour ([2]; vs vehicle control): higher | Effect on body weight [3]: mild (though non-significant) drop in body weight

Cn1cc(C[C@H](N)C(=O)O)c2ccccc21 [1-MT, 1-methyltryptophan]
Efficacy when given alone (U87 cell xenograft): ineffective | Survival duration ([4]; TMZ in combination with 1-MT, compared to TMZ alone): slight increase in the survival duration | Efficacy when given alone ([4]; orthotopic GL261 model, given alone): ineffective

Reference: article PMC11267968 (BMC Cancer, 2024)
